From patent US7977362B2, “Alpha-(N-benzenesulfonamido)cycloalkyl derivatives” (Bristol-Myers Squibb Company, priority 2009, dated 2011)

The compounds below were run on Aβ formation (γ-secretase) in H4 cells stably transfected to overexpress the HPLAP-APP fusion protein (assay: In vitro assay based on the inhibition of Aβ formation in cultured cells). Details: H4 cells overexpressing HPLAP-APP, 18 hrs incubation at 37° C., Aβ in supernatant by time-resolved fluorescence; class symbols.
Type: cell-based, human
Procedure: Cultured human cell lines, such as HEK293 and H4 cells, which express APP and γ-secretase activity or transfected derivative cell lines that overexpress wild-type APP, mutant APP, or APP fusion proteins will secrete Aβ peptides into the culture media that can be quantified as previously outlined (Dovey, H. et al., J. Neurochem., 76:173-181 (2001)). The incubation of these cultured cells with γ-secretase inhibitors decreases the production of Aβ peptides. For instance, H4 cells stably transfected to overexpress the HPLAP-APP fusion protein described above were grown as above, detached, and adjusted to 2×10^5 cells/ml. 100 μl of the resulting suspension was then added to each well of a 96-well plate. After 4 hrs, the media was removed and replaced with 100 μl serum-free media containing various dilutions of the test compound. Plates were then incubated for 18 hrs at 37° C. and a 100 μl aliquot of the tissue culture supernatant was removed for determination of Aβ levels using time-resolved fluorescence of the homogenous sample as outlined above. Alternately, the other methods described above for Aβ determination could be used. The extent of Aβ inhibition was used to calculate the IC50 value for the test compound.
In the table, an inhibitory concentration (IC50) of less than or equal to 50 nM is represented by +++; between 50 nM and 500 nM by ++; between 500 nM and 5000 nM by +.

`O=S(=O)(c1ccc(Cl)cc1)N(Cc1ccc(-c2ncon2)cc1)[C@@H]1CCCC[C@H]1CO` (single isomer, unassigned) [Compound 7, N-(4-(1,2,4-oxadiazol-3-yl)benzyl)-4-chloro-N-(trans-2-(hydroxymethyl)cyclohexyl)benzenesulfonamide] and `O=S(=O)(c1ccc(Cl)cc1)N(Cc1ccc(-c2ncco2)c(F)c1F)[C@@H]1CCCC[C@H]1CO` [Compound 16, 4-Chloro-N-(2,3-difluoro-4-(oxazol-2-yl)benzyl)-N-((1R,2R)-2-(hydroxymethyl)cyclohexyl)benzenesulfonamide] cannot be ordered by IC50: ≤ 50 nM for the first, ≤ 50 nM for the second.

For `O=S(=O)(c1ccc(Cl)cc1)N(Cc1ccc(-c2ncon2)cc1)[C@@H]1CCCC[C@H]1CO` [Compound 17, N-(4-(1,2,4-Oxadiazol-3-yl)benzyl)-4-chloro-N-((1R,2R)-2-(hydroxymethyl)cyclohexyl)benzenesulfonamide], the IC50 was ≤ 50 nM.

Same assay, conditions: H4 cells overexpressing HPLAP-APP, 18 hrs incubation at 37° C., Aβ in supernatant by time-resolved fluorescence; numeric values

Point of comparison: `O=S(=O)(c1ccc(Cl)cc1)N(Cc1cc(F)c(-c2ncon2)cc1F)[C@@H]1CCCC[C@H]1CO` (relative stereo) [Compound 11, 4-Chloro-N-(2,5-difluoro-4-(1,2,4-oxadiazol-3-yl)benzyl)-N-(trans-2-(hydroxymethyl)cyclohexyl)benzenesulfonamide], IC50 0.32 nM. Against it:
- O=S(=O)(c1ccc(Cl)cc1)N(Cc1cc(F)c(-c2ncon2)cc1F)[C@@H]1CCCC[C@H]1CO [Compound 21, 4-Chloro-N-(2,5-difluoro-4-(1,2,4-oxadiazol-3-yl)benzyl)-N-((1R,2R)-2-(hydroxymethyl)cyclohexyl)benzenesulfonamide] — 2.1-fold lower, 0.15 nM

Same assay, conditions: Homo sapiens, 18 h, H4 cells overexpressing HPLAP-APP, 18 hrs incubation at 37° C., Aβ in supernatant by time-resolved fluorescence; class symbols

`O=S(=O)(c1ccc(Cl)cc1)N(Cc1ccc(-c2ncco2)cc1)[C@@H]1CCC[C@H]1CO` (relative stereo) [Compound 1, 4-Chloro-N-(trans-2-(hydroxymethyl)cyclopentyl)-N-(4-(oxazol-2-yl)benzyl)benzenesulfonamide] and `O=S(=O)(c1ccc(Cl)cc1)N(Cc1ccc(-c2ncco2)cc1)[C@@H]1CCCC[C@H]1CO` [Compound 18, 4-Chloro-N-((1R,2R)-2-(hydroxymethyl)cyclohexyl)-N-(4-(oxazol-2-yl)benzyl)benzenesulfonamide] cannot be ordered by IC50: 50 to 500 nM for the first, ≤ 50 nM for the second.

`O=S(=O)(c1ccc(Cl)cc1)N(Cc1ccc(-c2ncon2)cc1)[C@@H]1CCC[C@H]1CO` (relative stereo) [Compound 2, N-(4-(1,2,4-Oxadiazol-3-yl)benzyl)-4-chloro-N-(trans-2-(hydroxymethyl)cyclopentyl)benzenesulfonamide] and `O=S(=O)(c1ccc(Cl)cc1)N(Cc1ccc(-c2ncon2)cc1)[C@@H]1CCC[C@@H]1CO` (relative stereo) [Compound 4, N-(4-(1,2,4-Oxadiazol-3-yl)benzyl)-4-chloro-N-(cis-2-(hydroxymethyl)cyclopentyl)benzenesulfonamide] fall in the same range of IC50: 50 to 500 nM for the first, 50 to 500 nM for the second.

`O=S(=O)(c1ccc(Cl)cc1)N(Cc1ccc(-c2ncon2)cc1)[C@@H]1CCCC[C@H]1CO` (relative stereo) [Compound 5, N-(4-(1,2,4-Oxadiazol-3-yl)benzyl)-4-chloro-N-(trans-2-(hydroxymethyl)cyclohexyl)benzenesulfonamide] and `O=S(=O)(c1ccc(Cl)cc1)N(Cc1ccc(-c2ncon2)cc1)[C@@H]1CCCCC[C@H]1CO` (relative stereo) [Compound 29, N-(4-(1,2,4-Oxadiazol-3-yl)benzyl)-4-chloro-N-(trans-2-(hydroxymethyl)cycloheptyl)benzenesulfonamide] cannot be ordered by IC50: ≤ 50 nM for the first, ≤ 50 nM for the second.

`O=S(=O)(c1ccc(Cl)cc1)N(Cc1ccc(-c2ncon2)cc1F)[C@@H]1CCCC[C@H]1CO` (relative stereo) [Compound 8, 4-Chloro-N-(2-fluoro-4-(1,2,4-oxadiazol-3-yl)benzyl)-N-(trans-2-(hydroxymethyl)cyclohexyl)benzenesulfonamide] and `O=S(=O)(c1ccc(Cl)cc1)N(Cc1ccc(-c2ncco2)cc1F)[C@@H]1CCCC[C@H]1CO` [Compound 19, 4-Chloro-N-(2-fluoro-4-(oxazol-2-yl)benzyl)-N-((1R,2R)-2-(hydroxymethyl)cyclohexyl)benzenesulfonamide] cannot be ordered by IC50: ≤ 50 nM for the first, ≤ 50 nM for the second.

`O=S(=O)(c1ccc(Cl)cc1)N(Cc1ccc(-c2ncco2)c(F)c1F)[C@@H]1CCCC[C@H]1CO` (relative stereo) [Compound 9, 4-Chloro-N-(2,3-difluoro-4-(oxazol-2-yl)benzyl)-N-(trans-2-(hydroxymethyl)cyclohexyl)benzenesulfonamide] and `O=S(=O)(c1ccc(Cl)cc1)N(Cc1cc(F)c(-c2ncco2)cc1F)[C@@H]1CCCC[C@H]1CO` [Compound 20, 4-Chloro-N-(2,5-difluoro-4-(oxazol-2-yl)benzyl)-N-((1R,2R)-2-(hydroxymethyl)cyclohexyl)benzenesulfonamide] cannot be ordered by IC50: ≤ 50 nM for the first, ≤ 50 nM for the second.

`N#Cc1cc(F)c(CN([C@@H]2CCCC[C@H]2CO)S(=O)(=O)c2ccc(Cl)cc2)cc1F` (relative stereo) [Compound 10, 4-Chloro-N-(4-cyano-2,5-difluorobenzyl)-N-(trans-2-(hydroxymethyl)cyclohexyl)benzenesulfonamide] and `N#Cc1ccc(CN([C@@H]2CCCCC[C@H]2CO)S(=O)(=O)c2ccc(Cl)cc2)cc1` (relative stereo) [Compound 28, 4-Chloro-N-(4-cyanobenzyl)-N-(trans-2-(hydroxymethyl)cycloheptyl)benzenesulfonamide] cannot be ordered by IC50: ≤ 50 nM for the first, ≤ 50 nM for the second.

`O=S(=O)(c1ccc(Cl)s1)N(Cc1ccc(-c2ncon2)cc1)[C@@H]1CCCC[C@H]1CO` (relative stereo) [Compound 12, N-(4-(1,2,4-Oxadiazol-3-yl)benzyl)-5-chloro-N-(trans-2-(hydroxymethyl)cyclohexyl)thiophene-2-sulfonamide] and `O=S(=O)(c1ccc(Cl)cc1)N(Cc1ccc(-c2ncon2)cc1)[C@@H]1CCCC[C@H]1CO` (single isomer, unassigned) [Compound 6, N-(4-(1,2,4-oxadiazol-3-yl)benzyl)-4-chloro-N-(trans-2-(hydroxymethyl)cyclohexyl)benzenesulfonamide] cannot be ordered by IC50: ≤ 50 nM for the first, ≤ 50 nM for the second.

`O=S(=O)(c1ccc(Cl)s1)N(Cc1ccc(-c2ncco2)c(F)c1F)[C@@H]1CCCC[C@H]1CO` (relative stereo) [Compound 13, 5-Chloro-N-(2,3-difluoro-4-(oxazol-2-yl)benzyl)-N-(trans-2-(hydroxymethyl)cyclohexyl)thiophene-2-sulfonamide] and `O=S(=O)(c1ccc(C(F)(F)F)nc1)N(Cc1ccc(-c2ncco2)c(F)c1F)[C@@H]1CCCC[C@H]1CO` (relative stereo) [Compound 27, N-(2,3-Difluoro-4-(oxazol-2-yl)benzyl)-N-(trans-2-(hydroxymethyl)cyclohexyl)-6-(trifluoromethyl)pyridine-3-sulfonamide] cannot be ordered by IC50: ≤ 50 nM for the first, ≤ 50 nM for the second.

`O=S(=O)(c1ccc(Cl)cc1)N(Cc1ccc(-c2ncco2)cc1)[C@@H]1CCCCC[C@H]1CO` (relative stereo) [Compound 30, 4-Chloro-N-(trans-2-(hydroxymethyl)cycloheptyl)-N-(4-(oxazol-2-yl)benzyl)benzenesulfonamide] and `O=S(=O)(c1ccc(Cl)cc1)N(Cc1ccc(-c2ncco2)cc1)[C@@H]1CCCCC[C@@H]1CO` (relative stereo) [Compound 31, 4-Chloro-N-(cis-2-(hydroxymethyl)cycloheptyl)-N-(4-(oxazol-2-yl)benzyl)benzenesulfonamide] cannot be ordered by IC50: ≤ 50 nM for the first, 50 to 500 nM for the second.

`O=S(=O)(c1ccc(Cl)cc1)N(Cc1ccc(-c2ncon2)cc1)[C@@H]1CCCCC[C@@H]1CO` (relative stereo) [Compound 32, N-(4-(1,2,4-Oxadiazol-3-yl)benzyl)-4-chloro-N-(cis-2-(hydroxymethyl)cycloheptyl)benzenesulfonamide] and `O=S(=O)(c1ccc(Cl)cc1)N(Cc1ccc(-c2ncco2)cc1F)[C@@H]1CCCC[C@H]1CF` [Compound 22, 4-Chloro-N-(2-fluoro-4-(oxazol-2-yl)benzyl)-N-((1R,2R)-2-(fluoromethyl)cyclohexyl)benzenesulfonamide] cannot be ordered by IC50: ≤ 50 nM for the first, ≤ 50 nM for the second.

`O=S(=O)(N[C@H]1CCCC[C@@H]1CO)c1ccc(Cl)cc1` (single isomer, unassigned) [Compound 14] and `O=S(=O)(N[C@@H]1CCCC[C@H]1CO)c1ccc(Cl)cc1` (single isomer, unassigned) [Compound 15] fall in the same range of IC50: 500 to 5000 nM for the first, 500 to 5000 nM for the second.

For `CC(O)[C@@H]1CCCC[C@H]1N(Cc1ccc(-c2ncco2)cc1F)S(=O)(=O)c1ccc(Cl)cc1` (single isomer, unassigned) [Compound 25], the IC50 was ≤ 50 nM.

Same assay, conditions: Homo sapiens, 18 h, H4 cells overexpressing HPLAP-APP, 18 hrs incubation at 37° C., Aβ in supernatant by time-resolved fluorescence; numeric values

Point of comparison: `O=S(=O)(c1ccc(Cl)cc1)N(Cc1ccc(-c2ncco2)cc1)[C@@H]1CCC[C@@H]1CO` (relative stereo) [Compound 3, 4-Chloro-N-(cis-2-(hydroxymethyl)cyclopentyl)-N-(4-(oxazol-2-yl)benzyl)benzenesulfonamide], IC50 223 nM. Against it:
- CC(O)[C@@H]1CCCC[C@H]1N(Cc1ccc(-c2ncco2)cc1F)S(=O)(=O)c1ccc(Cl)cc1 (single isomer, unassigned) [Compound 24] — 10-fold higher, 2300 nM
